The source made the active and inactive calls.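 How the source made its calls: active means compounds whose half-maximal activation potency EC50 is 10 µM or stronger; inactive means the rest.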

Melanocortin receptor 4 (Homo sapiens), sequence (P32245 whole entry, looked up): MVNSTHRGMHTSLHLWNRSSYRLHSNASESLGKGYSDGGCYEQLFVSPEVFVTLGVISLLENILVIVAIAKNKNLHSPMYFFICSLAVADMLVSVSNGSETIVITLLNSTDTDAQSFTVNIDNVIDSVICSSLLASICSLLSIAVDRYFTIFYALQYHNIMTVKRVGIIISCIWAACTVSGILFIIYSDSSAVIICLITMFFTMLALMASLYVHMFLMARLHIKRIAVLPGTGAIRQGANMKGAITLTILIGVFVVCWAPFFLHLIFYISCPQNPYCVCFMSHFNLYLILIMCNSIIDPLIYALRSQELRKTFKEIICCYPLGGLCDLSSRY

The test has as its target Melanocortin receptor 4 (Homo sapiens) (UniProt P32245). Briefly: MC4R beta-arrestin agonist potency, late-stage follow-up, cell-based, luminescence, agonists (AID 651555). The note with it: U2OS MC4R beta-arrestin recruitment, beta-gal luminescence. For orientation: Recruitment of arrestin is a read-out of receptor activation apart from second messengers.
Turning to `O=c1[nH]c2ccccc2n1C1CCN(CC(O)COc2ccc3ccccc3c2)CC1` (stereo not drawn), the EC50 (commonly the concentration that produces a half-maximal response) was > 50 µM (inactive). To `CC(=O)Nc1cc(-c2ccc(N(C)C)cc2)cn2c(-c3ccc(F)cc3)cnc12` belongs > 50 µM (inactive); to `OC(COc1ccc2ccccc2c1)CN1CCC(Nc2nc3ccccc3o2)CC1` (stereo not drawn), > 50 µM (inactive); to `Cc1ccccc1CN1Cc2cnnn2-c2ccccc2C1C#N` (stereo not drawn), > 50 µM (inactive). The value for `CC(=O)N(C)c1cc(-c2ccc(N(C)C)cc2)cn2c(-c3ccc(F)c(Cl)c3)cnc12` was > 50 µM (inactive); that for `Cc1ccccc1OCC(O)CN1CCC(CN2C(=O)c3cccc4cccc(c34)C2=O)CC1` (stereo not drawn) was > 50 µM (inactive); that for `CC(=O)c1ccc(Nc2nc3ccc(C(=O)N(CCC(C)C)CCC(C)C)cc3n2CCCN2CCCCC2)cc1` was > 50 µM (inactive).

With `CC(=O)Nc1cc(-c2ccc(N(C)C)cc2)cn2c(-c3ccc(F)c(Cl)c3)cnc12`, the EC50 was > 50 µM (inactive).

For the molecule `COc1ccc(N(C(C)=O)C(C(=O)NC2CCCC2)c2cccs2)cc1OC` (stereo not drawn), the EC50 is > 50 µM (inactive). To `CCC1CCCCN1S(=O)(=O)c1ccc(NC(=O)c2ccnc(SC)n2)cc1` (stereo not drawn) belongs > 50 µM (inactive). To `CCC1CCCCN1S(=O)(=O)c1ccc(NC(=O)c2ccccc2)cc1` (stereo not drawn) belongs “inactive”. Consider `CCOC(=O)C1(c2ccccc2)CCN(CC(O)COc2ccc3ccccc3c2)CC1` (stereo not drawn), for which the EC50 is > 50 µM (inactive). The value for `COc1ccccc1C1(CCNC(C)c2cccs2)CCOC(C(C)C)C1` (stereo not drawn) was > 50 µM (inactive); that for `CNC(=O)c1cc(Oc2ccc(NC(=O)CNc3ccc(Cl)c(C(F)(F)F)c3)cc2)ccn1` was > 50 µM (inactive). The value for `CC(=O)Nc1cc(-c2ccc(N(C)C)cc2)cn2c(-c3ccc(F)c(F)c3)cnc12` was > 50 µM (inactive). Take `CCC1CCCCN1S(=O)(=O)c1ccc(NC(=O)c2nc(S(C)(=O)=O)ncc2Cl)cc1` (stereo not drawn): the EC50 was > 50 µM (inactive). The value for `CCC1CCCCN1S(=O)(=O)c1ccc(NC(=O)c2cccc(S(C)(=O)=O)c2)cc1` (stereo not drawn) was > 50 µM (inactive); that for `C#CC(=O)N(c1ccc(OC)c(OC)c1)C(C(=O)NC1CCCC1)c1cccs1` (stereo not drawn) was > 50 µM (inactive). To `CNC(=O)c1cc(Oc2ccc(NCC(=O)Nc3ccc(Cl)c(C(F)(F)F)c3)cc2)ccn1` belongs > 50 µM (inactive); to `O=C1c2cccc3cccc(c23)C(=O)N1CC1CCN(CC(O)COc2ccccc2)CC1` (stereo not drawn), > 50 µM (inactive).

For `O=C1c2cccc3cccc(c23)C(=O)N1CC1CCN(CC(O)COc2ccc3ccccc3c2)CC1` (stereo not drawn), the EC50 entry is “inactive”. To `CC1CCCCN1S(=O)(=O)c1ccc(NC(=O)c2nc(S(C)(=O)=O)ncc2Cl)cc1` (stereo not drawn) belongs > 50 µM (inactive). The value for `CNC(=O)c1cc(Oc2ccc(NC(=O)Nc3ccc(Cl)c(C(F)(F)F)c3)cc2)ccn1` was > 50 µM (inactive).

The values above are taken from PubChem BioAssay AID651555 (The Scripps Research Institute Molecular Screening Center, 2012).
